The text below walks through data of patent US11680264B2, “Methods of modulating melanosome pH and melanin level in cells” (Cornell University, priority 2016, dated 2023).

In one data set the test system is sAC^KO mouse melanocytes. Put plainly: LysoSensor Yellow/Blue DND-160 organelle pH assay. It counts as cell-based. Particulars: 30 μM, 4 hours. The method, then:
(§1) To determine the pH of the sAC^KO and sAC^FF melanocytes the pH-sensitive vital dye LysoSensor Yellow/Blue DND-160 (Bellono et al. Sci Rep., 6:26570 (2016)) was used. Briefly, cells were incubated with 1 μM LysoSensor DND-160 (Invitrogen) for 5 minutes at 37° C. Lysosensor was excited at 405 nm and its emission detected at 417-483 nm (W1) and 490-530 nm (W2). The ratio of emissions (W1/W2) in Lysosensor-stained puncta was assigned to a pH value based on a calibration curve generated for each experiment using solutions containing 125 mM KCl, 25 mM NaCl, 24 μM monensin, and varying concentrations of MES to adjust the pH to 4, 4.5, 5.0, 5.5, 6.0, 6.5, 7.0, 7.5. The fluorescence ratio was linear for pH 5.0-7.0.
as §1, with “The effect” for “To determine the pH”, “pharmacologic inhibition of sAC was examined using” for “the sAC^KO and sAC^FF melanocytes”, “vial” for “vital”, “assay, described above.” for “(Bellono et al. Sci Rep., 6:26570 (2016)) was used.”, “Briefly, cultured sAC^FF melanocytes were treated for 4 hours with 30 μM KH7, 30 μM LRE1, or control (untreated). The” for “Briefly,”

For a further data set, the system named is sAC^FF mouse melanocytes. Put plainly: LysoSensor Yellow/Blue DND-160 organelle pH assay. The settings on record: 30 μM, 4 hours. It counts as cell-based. How it is done: as §1
as §1, with “The effect” for “To determine the pH”, “pharmacologic inhibition of sAC was examined using” for “the sAC^KO and sAC^FF melanocytes”, “vial” for “vital”, “assay, described above.” for “(Bellono et al. Sci Rep., 6:26570 (2016)) was used.”, “Briefly, cultured sAC^FF melanocytes were treated for 4 hours with 30 μM KH7, 30 μM LRE1, or control (untreated). The” for “Briefly,”

For the next data set, the system named is human melanocytes. Put plainly: DAMP melanosome pH assay (HMB45 co-staining). It counts as cell-based. Particulars: 4 hours, KH7 30 μM, cAMP 500 μM, H89 10 μM, ESI-09 10 μM. How it is done:
N-{3-[(2,4-dinitrophenyl)amino]propyl}-N-(3-aminopropyl)methylamine dihydrochloride (DAMP) is a weakly basic amine that is taken up in acidic organelles of live cells and which has been used to measure melanosome pH (Bin et al., PLOS One, 10(6):e0129273 (2015); Tabata et al., Cell Tissue Res., 332(3): 447-460 (2008)). Cells were cultured on sterile glass coverslips in 24-mm wells at 50×10^3 cells/coverslip. […] After permeabilization with 0.1% Triton X-100 in Buffer A at −20° C., the cells were labeled with the supplied anti-DNP antibody (Oxford Biomedical Research) according to kit protocol. Melanosomes were identified using the monoclonal antibody (anti-HMB45, 1:40, Santa Cruz Biotechnology). Fluorescence was detected after secondary staining with Alexa Fluor 546 donkey anti-goat IgG antibody (Invitrogen) and Alexa Fluor 647 donkey anti-mouse IgG antibody (Invitrogen). All quantitative analyses were performed using the Object Count tool in Nikon AR 4.60. For each image, the lower intensity threshold limit of each fluorescence channel was defined as the intensity of the dimmest punctum returned using the 3 points circle threshold tool. The upper intensity threshold limit was set to the maximum value. Equivalent diameter (EqDiameter) was restricted to 1.85-30.00 pixels. Circularity was restricted to 0.20-1.00. Mean fluorescence intensity was measured for all DAMP^+ puncta. Melanosomes were identified as HMB45^+ puncta. DAMP measurements were only recorded when colocalized with HMB45. Frequency distributions were generated for each sample from mean DAMP fluorescence intensity of DAMP^+ melanosomes. All analyses were performed on two replicate coverslips (n≥15 cells per coverslip). Melanosomes were first identified as TRP1^+ or tyrosinase^+ puncta. sAC^+ melanosomes were identified as R52^+ or R21^+ puncta colocalizing with TRP1^+ or tyrosinase^+ puncta. The degree of colocalization between sAC and melanosomes was calculated as the number of sAC+ melanosomes divided by the total number of melanosomes and expressed as a percentage.
The effect of sAC inhibition on melanosome pH was also assessed in human melanocytes.

A further data set concerns C3H/HeJ mice. Put plainly: Topical treatment of epilated back skin, hair pigmentation. It counts as in vivo, mouse. The method, then: Therefore, experiments were performed to determine whether inhibition of sAC in animals could alter hair pigmentation. Animal experiments were performed in accordance with approved Institutional Animal Care and Use Committee protocol at Weill Cornell Medicine. Age and gender matched C3H/HeJ mice (female, 7 weeks old) were purchased from The Jackson Laboratory. For the analysis of hair pigmentation, the upper and lower dorsum of each mouse were epilated using hair removal wax. 10 μl of KH7 (42 mg/ml in DMSO), LRE1 (28 mg/ml in DMSO) or DMSO (vehicle control) was topically applied onto the upper back and DMSO was applied to the lower back three times a day over two weeks. These mice were monitored for changes in coat color as the epilated hair grew back. Hair was removed from each treated area after 3 weeks to measure the length of the total hair, apical black tip and subapical agouti (pheomelanin) band under a stereo microscope. Mice were euthanized and the treated skin was submitted to a blinded animal pathologist for histological evaluation of the epidermis and hair follicles. This experiment was performed twice with 3-4 mice per cohort (total n=6-7)

[1] abbreviates: topical on back, hair removed after 3 weeks.

Take `CC(Sc1nc2ccccc2[nH]1)C(=O)N/N=C/c1cc(Br)ccc1O` (stereo not shown) [KH7]: the “pH of LysoSensor-visualized organelles” value with sAC^KO mouse melanocytes was “had no effect”; in the data set with sAC^FF mouse melanocytes it was “induced an alkaline pH shift”. Besides, the “melanosome pH (DAMP), substance alone” value in the data set with human melanocytes is “alkaline shift in melanosome pH”. In the data set with C3H/HeJ mice (setting [1]), the “eumelanin production in hair (microscopic examination)” value is “increase in eumelanin production”. In addition, in the data set with C3H/HeJ mice (setting [1]), the “length of the agouti (pheomelanin) band” value is “reduction in length of the agouti (pheomelanin) band”. Besides, the “histologic examination of treated skin” value with C3H/HeJ mice (topical on back, two weeks) is “did not reveal any pathological change to the hair follicles or epidermis”. Also, the “colour of regrown hair versus vehicle control” value in the data set with C3H/HeJ mice (topical on epilated back, 10 μl KH7 42 mg/ml or LRE1 28 mg/ml in DMSO, three times a day over two weeks) is “visual darkening of regrown hair”.
